Test system: NOMO1
Assay: cell viability relative to DMSO control; higher = less cytotoxic
Settings: 48 h
Procedure, shortened: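 Library compounds in DMSO were pin-dosed in an 11-point threefold series (47 μM to 0.79 nM) onto leukemia cells in 1536-well plates (5 μl). Plates held 500 cells/well of NOMO1 or SEM or 1000 cells/well of P12-Ichikawa, each adapted for at least four passages in each medium. Luminescence was read with CellTiter-Glo One after 48 h at 37°C. Viability means the per-plate percentage relative to DMSO wells, using cell-free wells as background.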

[1] = HPLM + 10% dialyzed FBS, 0.000781 µM
[2] = HPLM + 10% dialyzed FBS, 0.00234 µM
[3] = HPLM + 10% dialyzed FBS, 0.00702 µM
[4] = HPLM + 10% dialyzed FBS, 0.0211 µM
[5] = HPLM + 10% dialyzed FBS, 0.0632 µM
[6] = HPLM + 10% dialyzed FBS, 0.19 µM
[7] = HPLM + 10% dialyzed FBS, 0.569 µM
[8] = HPLM + 10% dialyzed FBS, 1.71 µM
[9] = HPLM + 10% dialyzed FBS, 5.12 µM
[10] = HPLM + 10% dialyzed FBS, 15.4 µM
[11] = HPLM + 10% dialyzed FBS, 46.1 µM
[12] = RPMI 5 mM glucose + 10% FBS, 0.000781 µM
[13] = RPMI 5 mM glucose + 10% FBS, 0.00234 µM
[14] = RPMI 5 mM glucose + 10% FBS, 0.00702 µM
[15] = RPMI 5 mM glucose + 10% FBS, 0.0211 µM
[16] = RPMI 5 mM glucose + 10% FBS, 0.0632 µM
[17] = RPMI 5 mM glucose + 10% FBS, 0.19 µM
[18] = RPMI 5 mM glucose + 10% FBS, 0.569 µM
[19] = RPMI 5 mM glucose + 10% FBS, 1.71 µM
[20] = RPMI 5 mM glucose + 10% FBS, 5.12 µM
[21] = RPMI 5 mM glucose + 10% FBS, 15.4 µM
[22] = RPMI 5 mM glucose + 10% FBS, 46.1 µM
[23] = RPMI 5 mM glucose + 10% dialyzed FBS, 0.000781 µM
[24] = RPMI 5 mM glucose + 10% dialyzed FBS, 0.00234 µM
[25] = RPMI 5 mM glucose + 10% dialyzed FBS, 0.00702 µM
[26] = RPMI 5 mM glucose + 10% dialyzed FBS, 0.0211 µM
[27] = RPMI 5 mM glucose + 10% dialyzed FBS, 0.0632 µM
[28] = RPMI 5 mM glucose + 10% dialyzed FBS, 0.19 µM
[29] = RPMI 5 mM glucose + 10% dialyzed FBS, 0.569 µM
[30] = RPMI 5 mM glucose + 10% dialyzed FBS, 1.71 µM
[31] = RPMI 5 mM glucose + 10% dialyzed FBS, 5.12 µM
[32] = RPMI 5 mM glucose + 10% dialyzed FBS, 15.4 µM
[33] = RPMI 5 mM glucose + 10% dialyzed FBS, 46.1 µM

| Structure (SMILES) | cell viability [1] | cell viability [2] | cell viability [3] | cell viability [4] | cell viability [5] | cell viability [6] | cell viability [7] | cell viability [8] | cell viability [9] | cell viability [10] | cell viability [11] | cell viability [12] | cell viability [13] | cell viability [14] | cell viability [15] | cell viability [16] | cell viability [17] | cell viability [18] | cell viability [19] | cell viability [20] | cell viability [21] | cell viability [22] | cell viability [23] | cell viability [24] | cell viability [25] | cell viability [26] | cell viability [27] | cell viability [28] | cell viability [29] | cell viability [30] | cell viability [31] | cell viability [32] | cell viability [33] |
| --- | --- | --- | --- | --- | --- | --- | --- | --- | --- | --- | --- | --- | --- | --- | --- | --- | --- | --- | --- | --- | --- | --- | --- | --- | --- | --- | --- | --- | --- | --- | --- | --- | --- |
| NC(=O)c1cccc2nc(-c3ccc([C@H]4CCCN4)cc3F)[nH]c12 | 112% | 120% | 108% | 133% | 116% | 131% | 128% | 106% | 119% | 107% | 81.5% | 95.8% | 95.4% | 104% | 114% | 125% | 107% | 117% | 107% | 101% | 105% | 89.6% | 102% | 112% | 117% | 121% | 118% | 114% | 132% | 130% | 120% | 109% | 81.3% |
| CC1=C(CC(=O)O)c2cc(F)ccc2/C1=C\c1ccc([S+](C)[O-])cc1 (centres undefined) | 121% | 122% | 106% | 123% | 125% | 107% | 140% | 99.6% | 103% | 101% | 113% | 125% | 118% | 105% | 132% | 115% | 110% | 112% | 113% | 114% | 110% | 112% | 128% | 119% | 119% | 123% | 139% | 139% | 119% | 109% | 104% | 107% | 99.6% |
| Cc1cc(C(=O)N2CCN(c3cccc(Cl)c3)CC2)n(-c2ccccc2)n1 | 116% | 115% | 114% | 97.7% | 115% | 116% | 91.8% | 70.7% | 30.7% | 26.5% | 29.3% | 90.3% | 99.9% | 96.1% | 97.5% | 94.5% | 99.7% | 99.6% | 92.2% | 69.7% | 15.9% | 14.8% | 98% | 100% | 96.6% | 90.7% | 89.7% | 109% | 90.5% | 85.9% | 38.3% | 22% | 24.1% |
| O=C(Cc1ccc(-c2ccc(OCCN3CCOCC3)cc2)cn1)NCc1ccccc1 | 118% | 102% | 123% | 111% | 43.7% | 41.9% | 43.8% | 53.7% | 52.5% | 56.6% | 40.6% | 124% | 122% | 117% | 128% | 71.9% | 27.1% | 33.2% | 34.1% | 32.5% | 31.3% | 33.7% | 118% | 108% | 124% | 112% | 62.5% | 35.8% | 35.2% | 41.7% | 40.6% | 33.4% | 42.7% |
| O=C(Nc1ncc(-c2cc(C(F)F)nn2-c2c(Cl)cccc2Cl)s1)C1CC1 | 120% | 107% | 120% | 117% | 132% | 138% | 137% | 99.1% | 44.4% | 62.8% | 49% |  |  |  |  |  |  |  |  |  |  |  |  |  |  |  |  |  |  |  |  |  |  |
| CN1CCN2c3ncccc3Cc3ccccc3C2C1 (centres undefined) | 121% | 112% | 141% | 118% | 138% | 114% | 123% | 135% | 33.4% | 98.9% | 108% | 101% | 105% | 110% | 112% | 103% | 103% | 116% | 110% | 29.5% | 98.8% | 112% |  |  |  |  |  |  |  |  |  |  |  |
| C[C@]12CC[C@H]3[C@@H](C\C=C/4C[C@@H](O)CC[C@]34C)[C@@H]1CCC2=O | 115% | 134% | 117% | 121% | 147% | 117% | 111% | 110% | 103% | 110% | 84.7% | 116% | 126% | 116% | 104% | 116% | 105% | 121% | 112% | 117% | 103% | 98% | 120% | 108% | 115% | 119% | 118% | 106% | 114% | 108% | 103% | 109% | 106% |
| Nc1cc(C(F)(F)F)c(-c2cc(N3CCOCC3)nc(N3CCOCC3)n2)cn1 |  |  |  |  |  |  |  |  |  |  |  | 115% | 127% | 118% | 133% | 130% | 120% | 98.4% | 74.5% | 14.8% | 6.77% | 7.91% |  |  |  |  |  |  |  |  |  |  |  |

Reference: the supplement of paper PMC11451515
